In patent US6451801B1, “Compounds and methods for treatment of asthma, allergy and inflammatory disorders” (UCB, S.A., priority 1999, dated 2002):
Read-outs that look alike come from different tables or passages of the source.

How the values were obtained:
[1] = target: T1, human 5-lipoxygenase enzyme (Homo sapiens, UniProt P09917); test: Inhibition of LTB4 production in human whole blood; type: cell-based
T1 construct: endogenous in cells; host or cells: human whole blood (leukocytes) stimulated with A23187
T1 sequence (P09917 1-674): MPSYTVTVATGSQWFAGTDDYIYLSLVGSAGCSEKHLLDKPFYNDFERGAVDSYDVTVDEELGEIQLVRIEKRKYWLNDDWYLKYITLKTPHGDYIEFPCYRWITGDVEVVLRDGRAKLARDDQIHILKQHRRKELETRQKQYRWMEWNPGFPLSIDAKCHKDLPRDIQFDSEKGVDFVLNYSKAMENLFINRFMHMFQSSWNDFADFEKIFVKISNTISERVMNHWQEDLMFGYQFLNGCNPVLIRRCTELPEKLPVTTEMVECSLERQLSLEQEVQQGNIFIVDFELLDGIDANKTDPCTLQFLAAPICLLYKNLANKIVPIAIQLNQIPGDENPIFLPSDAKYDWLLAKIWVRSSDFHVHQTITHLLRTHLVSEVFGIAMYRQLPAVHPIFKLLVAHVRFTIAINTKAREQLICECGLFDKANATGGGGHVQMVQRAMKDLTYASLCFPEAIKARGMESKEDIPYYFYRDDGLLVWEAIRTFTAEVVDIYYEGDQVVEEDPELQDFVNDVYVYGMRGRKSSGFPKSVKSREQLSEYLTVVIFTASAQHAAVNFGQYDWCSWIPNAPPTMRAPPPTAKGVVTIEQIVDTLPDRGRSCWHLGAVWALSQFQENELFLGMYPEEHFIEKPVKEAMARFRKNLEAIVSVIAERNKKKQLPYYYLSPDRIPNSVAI
Method: This assay examines the ability of a compound to inhibit leukotriene B4 production from human blood stimulated with calcium ionophore. As this production of leukotriene B4 is mediated via the activation of the 5-lipoxygenase enzyme, this assay is predictive of a compound's ability to inhibit the human 5-lipoxygenase enzyme.
The procedure for the assay is as follows. Blood is drawn from normal human volunteers into tubes containing heparin. 1 ml of the heparinized blood is pipetted into a 1.5 ml polypropylene tube. To this sample is added either different concentrations of the test compound (5 μl) dissolved in DMSO or 5 μl of DMSO as a vehicle control. These samples are incubated in a water bath, at 37° C. for 15 min. 5 μl of the calcium ionophore A23187 (at a final concentration of 50 μM) is then added to each sample, which is vortexed and placed back in the water bath for 30 min. The samples are then centrifuged at 2500 rpm for 10 min. at 4° C. 50 μl of the supernatant is transferred into pre-cooled Eppendorf tubes containing 950 μl of enzyme immunoassay (EIA) buffer. A commercially available EIA kit (Cayman Chemical Co., Ann Arbor, Mich., USA) is used to subsequently measure the LTB4 production in the samples. The LTB4 levels produced in the vehicle control sample is then compared to those in which the test compound has been added. From this a percent inhibition of LTB4 production by each concentration of test compound is calculated and the IC50 for inhibition of LTB4 production for each test compound is determined.

[2] = test system: histamine-induced bronchoconstriction; test: Antihistaminergic activity in vivo (histamine-induced bronchoconstriction); conditions: guinea pig, oral, 2 mg/kg; for inhibition in vivo at 2 mg/kg: Cavia porcellus
Method: Male, Hartley guinea pigs are obtained from Charles River Labs at a body weight of 350 -400 grams. Inhibition of histamine activity is measured by the method of Konzett and Rössler (Naonyn-Schmiedebergs Arch. Exp. Path. Pharmakol. 195, 71-74 (1940). Anaethetized guinea pigs are subjected to artificial ventilation. The endotracheal pressure is recorded. Bronchoconstriction is induced by successive intravenous injections of histamine. The test compounds are administered orally in a 1% methocellulose suspension at set timepoints prior to the administration of histamine.
The results (Table 2) show the percent inhibition of histamine-induced bronchoconstriction by selected compounds at multiple time points post oral dosing. 50% inhibition or greater is considered significant.

[3] = test system: 5-lipoxygenase; test: 5-Lipoxygenase inhibitory activity in vivo; conditions: guinea pig, oral, 2 mg/kg
Method: Male, Hartley guinea pigs are obtained from Charles River Labs at a body weight of 350-400 grams. Compounds are prepared at a volume of [1-2 mg/ml] in 1% methocellulose for oral dosing. Animals are separated into groups of five (5). Each assay includes a control group dosed with vehicle. Each group of animals is dosed with either vehicle or compound by oral gavage. Animals are allowed to rest for one, three, or six hours after dosing. Control animals are allowed to rest for three hours. At the appropriate times, the animals are anesthetized with Urethane at 1.5 g/kg, ip. Blood is drawn into a heparinized syringe via cardiac puncture. Blood (0.5 ml) is aliquoted into separately-labeled 1.5 ml eppendorf tubes. Each sample is loaded with 5 μl of [15 mM] Arachidonic Acid, and placed in a 37° C. water bath for five minutes. After five minutes, the blood is stimulated with 5 μl of [5 mM] A23187 (Calcium Ionophore) and retained in the water bath for an additional 30 minutes. After the thirty minutes, the blood samples are removed from the water bath and centrifuged at 14,000 rpm for 2 minutes. Plasma is diluted to EIA buffer and an EIA is performed following manufacturer instructions (Cayman Chemical Co., Ann Arbor, Mich., USA). The results (Table 3) show the percent inhibition of 5-lipoxygenase by selected compounds at multiple time points post oral dosing. 50% inhibition or greater is considered significant.

[4] = target: T2, 15-lipoxygenase (Oryctolagus cuniculus, UniProt P12530); test: Inhibition of 15-lipoxygenase (15-HETE production); type: biochemical; conditions: 15-lipoxygenase from rabbit peritoneal polymorphonuclear leukocytes, 5 min at 37° C.
T2 construct: from tissue; host or cells: rabbit peritoneal polymorphonuclear leukocytes
T2 sequence (P12530 1-663): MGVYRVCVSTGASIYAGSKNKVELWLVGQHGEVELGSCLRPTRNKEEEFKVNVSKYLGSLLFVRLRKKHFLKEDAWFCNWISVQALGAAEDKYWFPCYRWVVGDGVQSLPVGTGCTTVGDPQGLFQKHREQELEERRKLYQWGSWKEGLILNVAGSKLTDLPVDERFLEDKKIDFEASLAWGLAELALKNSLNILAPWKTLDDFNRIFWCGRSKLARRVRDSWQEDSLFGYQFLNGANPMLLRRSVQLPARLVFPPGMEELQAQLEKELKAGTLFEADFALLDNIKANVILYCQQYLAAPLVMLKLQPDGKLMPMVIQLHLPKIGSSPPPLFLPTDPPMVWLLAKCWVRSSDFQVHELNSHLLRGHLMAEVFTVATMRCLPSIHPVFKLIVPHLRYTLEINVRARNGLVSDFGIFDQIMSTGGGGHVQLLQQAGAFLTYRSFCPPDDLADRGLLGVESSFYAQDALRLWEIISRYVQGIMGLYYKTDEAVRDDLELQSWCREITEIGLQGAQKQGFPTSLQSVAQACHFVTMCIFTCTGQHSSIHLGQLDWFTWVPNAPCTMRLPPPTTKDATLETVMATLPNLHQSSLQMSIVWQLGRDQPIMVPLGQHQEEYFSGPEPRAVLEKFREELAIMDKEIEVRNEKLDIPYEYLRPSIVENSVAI
Description: This assay examines the ability of a compound to inhibit production of 15-hydroxy-5, 8, 11, 13-eicosatetraenoic acid (15-HETE) via the action of 15-lipoxygenase on arachidonic acid. 15-lipoxygenase was purified from rabbit peritoneal polymorphonuclear leukocytes. The enzyme is responsible for the conversion of arachidonic acid (via oxygenation at carbon 15 of arachidonic acid) to 15-hydroperoxy-5, 8, 11, 13-eicosatetraenoic acid (15-HPETE), which then reduced to 15-hydroxy-5, 8, 11, 13-eicosatetraenoic acid (15-HETE).
The procedure for the assay is as follows. Arachidonic acid is co-incubated with […] for 5 min at 37° C. in the presence or absence of different concentrations of test compound (10^−8 to 10^−5 M). Production of 15-HETE in each sample is then measured by radioimmunoassay. The 15-HETE levels produced in the vehicle control sample are then compared to those in which the test compound has been added.

[5] = target: T3, human cloned H1 receptor (Homo sapiens, UniProt P35367); test: CHO-K1 H1R binding assay; conditions: 3H-pyrilamine 2 nM, CHO-K1 membranes, 3 hours at 37° C.; read-out: CHOH1 K1
T3 construct: expressed in transfected cells; host or cells: CHO-K1
T3 sequence (P35367 whole entry): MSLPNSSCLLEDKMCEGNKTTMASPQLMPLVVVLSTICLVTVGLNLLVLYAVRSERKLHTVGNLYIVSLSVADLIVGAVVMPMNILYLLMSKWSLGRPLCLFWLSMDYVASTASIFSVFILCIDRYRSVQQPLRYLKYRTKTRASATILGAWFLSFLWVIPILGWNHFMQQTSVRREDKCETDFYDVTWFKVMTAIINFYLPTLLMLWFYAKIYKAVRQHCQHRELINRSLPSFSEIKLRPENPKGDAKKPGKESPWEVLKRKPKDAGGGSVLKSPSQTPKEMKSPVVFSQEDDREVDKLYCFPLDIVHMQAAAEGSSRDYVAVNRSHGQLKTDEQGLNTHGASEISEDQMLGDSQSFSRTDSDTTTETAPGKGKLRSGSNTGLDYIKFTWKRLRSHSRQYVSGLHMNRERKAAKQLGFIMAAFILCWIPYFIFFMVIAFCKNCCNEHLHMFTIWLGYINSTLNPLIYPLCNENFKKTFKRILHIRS
Method: CHO-K1 cells expressing the human cloned H1 receptor are grown to confluence in tissue culture dishes. Cells are harvested using D-PBS buffer (JRH Biosciences), kept at 4° C., centrifuging to pellet cells (4° C., 500 g, 10 min). The final cell pellet is homogenized and resuspended using Tris/sucrose buffer (20 mM Tris, 250 mM sucrose, pH 7.4 at 4° C.). Aliquots of the membrane preparation are stored at −70° C.
On the day of assay, the membrane preparation is thawed and centrifuged (TLA100.3 rotor, 4° C., 15 min, 23,000 rpm). The pellet is resuspended in Tris/sucrose buffer initially and then diluted further as necessary using assay buffer A (50 mM Na/KPO4, 2 mM MgCl2, 0.5% (w/v) BSA, pH 7.5).
For the binding assay, the membrane preparation, test compound and ^3H-pyrilamine (2 nM final) in buffer A with 1% (v/v) DMSO final are incubated in a 96-well polypropylene plate for 3 hours at 37° C. Non-specific binding is determined in the presence of 10 μM pyrilamine. A 96-well harvester (Packard) is used to harvest the 96-well plate onto a GF/B filter plate pre-treated with 0.1% (v/v) PEI. The plate is counted in a Packard Topcounter after adding Microscint 20 (Packard) scintillation fluid. The Ki for each compound at the histamine H1 receptor is then calculated from these counts.

[6] = human whole blood, calcium ionophore A23187 50 μM, LTB4 by EIA, read-out: HWB IC50

Structure (SMILES) | IC50 [1, 6] | inhibition in vivo at 2 mg/kg ([2]; 3 hrs) | % inhibition of 5-lipoxygenase ([3]; 3 hours) | % inhibition of 5-lipoxygenase ([3]; 6 hours) | IC50 [4] | Ki [5] | inhibition in vivo at 2 mg/kg ([2]; 6 hrs) | % inhibition of 5-lipoxygenase ([3]; 1 hour) | IC50 [1] | % inhibition of histamine-induced bronchoconstriction ([2]; 6 hrs)
NC(=O)N(O)CCC#Cc1ccc(OCCCCN2CCN(C(c3ccc(F)cc3)c3ccc(F)cc3)CC2)cc1 [Compound 80, amino-N-{4-[4-(4-{4-[bis(4-fluorophenyl)methyl]piperazinyl}butoxy)phenyl]but-3-ynyl}-N-hydroxyamide] | 78 nM | 98% | 73% | 88% | 110 nM |  |  |  |  | 
NC(=O)N(O)CCC#Cc1ccc(OCCN2CCN(C(c3ccc(F)cc3)c3ccc(F)cc3)CC2)cc1[N+](=O)[O-] [Compound 87, N-{4-[4-(2-{4-[bis(4-fluorophenyl)methyl]-1-piperazinyl}ethoxy)-2-nitrophenyl]-3-butynyl)-N-hydroxyurea] | 251 nM | 66% |  | 94% |  | 58 nM | 73% | 70% |  | 
NC(=O)N(O)CCC#Cc1cccc(OCCN2CCN([C@H](c3ccccc3)c3ccc(Cl)cc3)CC2)c1 [Compound 23, N-{4-[3-(2-{4-[(1R)(4-chlorophenyl)phenylmethyl]piperazinyl}ethoxy)phenyl]but-3-ynyl}amino-N-hydroxyamide] | 287 nM | 80% |  |  |  | 10 nM | 92% | 80% |  | 
NC(=O)N(O)CCC#Cc1ccc(CN2CCN(C(c3ccc(F)cc3)c3ccc(F)cc3)CC2)o1 [Compound 34, amino-N-{4-[5-({4-[bis (4-fluorophenyl)methyl]piperazinyl}methyl) (2-furyl)]but-3-ynyl}-N-hydroxyamide] |  | 81% | 38% |  |  | 550 nM | 89% |  | 142 nM | 
NC(=O)N(O)CCC#Cc1ccc(CN2CCN([C@H](c3ccccc3)c3ccc(Cl)cc3)CC2)o1 [Compound 27, N-{4-[5-({4-[(1R) (4-chlorophenyl)phenylmethyl]piperazinyl}methyl)(2-furyl)]but-3-ynyl}amino-N-hydroxyamide] | 650 nM | 86% |  |  |  | 150 nM | 91% | 88% |  | 91%
NC(=O)N(O)CCC#Cc1ccc(OCCN2CCN([C@H](c3ccccc3)c3ccc(Cl)cc3)CC2)cc1 [Compound 12, N-{4-[4-(2-{4-[(1R) (4-chlorophenyl)phenylmethyl]piperazinyl}ethoxy)phenyl]but-3-ynyl} amino-N-hydroxyamide] | 267 nM | 62% |  | 80% |  |  | 66% |  |  | 
NC(=O)N(O)CC#CCN1CCN([C@H](c2ccccc2)c2ccc(Cl)cc2)CC1 [Compound 9, N-(4-{4-[(1R) (4-chlorophenyl)phenylmethyl]piperazinyl}but-2-ynyl) amino-N-hydroxyamide] | 4220 nM |  |  |  |  | 12 nM |  |  |  | 
NC(=O)N(O)CCCCc1cccc(OCCN2CCN(C(c3ccccc3)c3ccccc3)CC2)c1 [Compound 30, amino-N-[4-(3-{2-[4-(diphenylmethyl)piperazinyl]ethoxy}phenyl)butyl]-N-hydroxyamide] | 412 nM |  |  |  |  | 36 nM |  |  |  | 
NC(=O)N(O)CCCCc1ccc(OCCN2CCN([C@H](c3ccccc3)c3ccc(Cl)cc3)CC2)cc1 [Compound 17, N-{4-[4-(2-{4-[(1R) (4-chlorophenyl)phenyl-methyl]piperazinyl}ethoxy)phenyl]butyl} amino-N-hydroxyamide] | 254 nM | 66% | 70% | 94% |  | 15 nM | 73% |  |  | 
NC(=O)N(O)CCC#C[C@@H]1CC[C@@H](CN2CCN([C@H](c3ccccc3)c3ccc(Cl)cc3)CC2)O1 [Compound 46, N-{4-[5-({4-[(1R)(4-chlorophenyl)phenylmethyl]piperazinyl}methyl)(2S,5S)oxolan-2-yl]but-3-ynyl}amino-N-hydroxyamide] | 313 nM |  |  |  |  | 133 nM |  |  |  | 
COC(=O)c1cc(C#CCCN(O)C(N)=O)ccc1OCCN1CCN([C@H](c2ccccc2)c2ccc(Cl)cc2)CC1 [Compound 36, methyl2-(2-{4-[(1R) (4-chlorophenyl)phenyl-methyl]piperazinyl}ethoxy)-5-[4-(amino-hydroxycarbonylamino)but-1-ynyl]benzoate] | 94 nM |  |  |  |  | 420 nM |  |  |  | 
